# What was measured:
# Pseudomonas aeruginosa [1] = test: Antimicrobial activity against Pseudomonas aeruginosa ATCC 27853 by CLSI broth microdilution method; type: functional
# Escherichia coli [2] = test: microbe, parasite or virus in culture
# Description: Antimicrobial activity against Escherichia coli expressing beta-lactamase PER-4 by CLSI broth microdilution method
# Pseudomonas aeruginosa [3] = test: Antimicrobial activity against Pseudomonas aeruginosa expressing delta-mexB/delta-mexXY/delta-mexCD and delta-ampC mutant by CLSI broth microdilution method; type: functional
# Escherichia coli [4] = test: microbe, parasite or virus in culture; remark: listed apart in the source
# Description: Antimicrobial activity against Escherichia coli expressing beta-lactamase KPC-4 by CLSI broth microdilution method
# Escherichia coli [5] = test: microbe, parasite or virus in culture; remark: listed apart in the source
# Description: Antimicrobial activity against Escherichia coli expressing beta-lactamase Oxa-23 by CLSI broth microdilution method
# Escherichia coli [6] = test: microbe, parasite or virus in culture; remark: listed apart in the source
# Description: Antimicrobial activity against Escherichia coli expressing beta-lactamase SPM-1 by CLSI broth microdilution method
# Escherichia coli [7] = test: microbe, parasite or virus in culture; remark: listed apart in the source
# Description: Antimicrobial activity against Escherichia coli expressing beta-lactamase GES-1 by CLSI broth microdilution method
# Escherichia coli [8] = test: Antimicrobial activity against Escherichia coli expressing beta-lactamase TEM-1 by CLSI broth microdilution method; type: functional
# Escherichia coli [9] = test: microbe, parasite or virus in culture; remark: listed apart in the source
# Description: Antimicrobial activity against Escherichia coli expressing beta-lactamase P99 by CLSI broth microdilution method
# Pseudomonas aeruginosa [10] = test: Antimicrobial activity against Pseudomonas aeruginosa expressing nalB/delta-mexXY/delta-mexCDoprJ/delta-ampC by CLSI broth microdilution method; type: functional
# Escherichia coli [11] = test: Antimicrobial activity against Escherichia coli expressing beta-lactamase VEB-1 by CLSI broth microdilution method; type: functional
# Escherichia coli [12] = test: microbe, parasite or virus in culture; remark: listed apart in the source
# Description: Antimicrobial activity against Escherichia coli expressing beta-lactamase NMC-A by CLSI broth microdilution method
# Escherichia coli [13] = test: microbe, parasite or virus in culture; remark: listed apart in the source
# Description: Antimicrobial activity against Escherichia coli expressing beta-lactamase TEM-16 by CLSI broth microdilution method
# Escherichia coli [14] = test: microbe, parasite or virus in culture; remark: listed apart in the source
# Description: Antimicrobial activity against Escherichia coli expressing beta-lactamase AmpC by CLSI broth microdilution method
# Escherichia coli [15] = test: microbe, parasite or virus in culture; remark: listed apart in the source
# Description: Antimicrobial activity against Escherichia coli expressing beta-lactamase Oxa-10 by CLSI broth microdilution method
# Escherichia coli [16] = test: microbe, parasite or virus in culture; remark: listed apart in the source
# Description: Antimicrobial activity against Escherichia coli expressing beta-lactamase GIM-1 by CLSI broth microdilution method
# Escherichia coli [17] = test: microbe, parasite or virus in culture; remark: listed apart in the source
# Description: Antimicrobial activity against Escherichia coli expressing beta-lactamase TEM-121 by CLSI broth microdilution method
# Escherichia coli [18] = test: microbe, parasite or virus in culture; remark: listed apart in the source
# Description: Antimicrobial activity against Escherichia coli expressing beta-lactamase CTXM-3 by CLSI broth microdilution method
# Escherichia coli [19] = test: microbe, parasite or virus in culture; remark: listed apart in the source
# Description: Antimicrobial activity against Escherichia coli expressing beta-lactamase KPC-8 by CLSI broth microdilution method
# Escherichia coli [20] = test: microbe, parasite or virus in culture; remark: listed apart in the source
# Description: Antimicrobial activity against Escherichia coli expressing beta-lactamase KPC-3 by CLSI broth microdilution method
# Escherichia coli [21] = test: microbe, parasite or virus in culture; remark: listed apart in the source
# Description: Antimicrobial activity against Escherichia coli expressing beta-lactamase VIM-1 by CLSI broth microdilution method
# Escherichia coli [22] = test: microbe, parasite or virus in culture; remark: listed apart in the source
# Description: Antimicrobial activity against Escherichia coli expressing beta-lactamase Oxa-160 by CLSI broth microdilution method
# Escherichia coli [23] = test: microbe, parasite or virus in culture; remark: listed apart in the source
# Description: Antimicrobial activity against Escherichia coli expressing beta-lactamase Oxa-18 by CLSI broth microdilution method
# Escherichia coli [24] = test: microbe, parasite or virus in culture; remark: listed apart in the source
# Description: Antimicrobial activity against Escherichia coli expressing beta-lactamase Oxa-51 by CLSI broth microdilution method
# Escherichia coli [25] = test: Antimicrobial activity against Escherichia coli expressing beta-lactamase NDM-5 by CLSI broth microdilution method; type: functional
# Escherichia coli [26] = test: microbe, parasite or virus in culture; remark: listed apart in the source
# Description: Antimicrobial activity against Escherichia coli expressing beta-lactamase CTXM-15 by CLSI broth microdilution method
# Escherichia coli [27] = test: microbe, parasite or virus in culture; remark: listed apart in the source
# Description: Antimicrobial activity against Escherichia coli expressing beta-lactamase IMI-1 by CLSI broth microdilution method
# Escherichia coli [28] = test: microbe, parasite or virus in culture; remark: listed apart in the source
# Description: Antimicrobial activity against Escherichia coli expressing beta-lactamase Oxa-40 by CLSI broth microdilution method
# Escherichia coli [29] = test: microbe, parasite or virus in culture; remark: listed apart in the source
# Description: Antimicrobial activity against Escherichia coli expressing beta-lactamase IMP-1 by CLSI broth microdilution method
# [30] = Chemical stability in pH 7.4 potassium phosphate buffer assessed as half life for compound hydrolysis at 37 degC by UPLC and mass spectrometry; type: physicochemical
# Escherichia coli [31] = test: microbe, parasite or virus in culture; remark: listed apart in the source
# Description: Antimicrobial activity against Escherichia coli expressing beta-lactamase VEB-4 by CLSI broth microdilution method
# Escherichia coli [32] = test: microbe, parasite or virus in culture; remark: listed apart in the source
# Description: Antimicrobial activity against Escherichia coli expressing beta-lactamase Oxa-48 by CLSI broth microdilution method
# Escherichia coli [33] = test: microbe, parasite or virus in culture; remark: listed apart in the source
# Description: Antimicrobial activity against Escherichia coli expressing beta-lactamase VEB-7 by CLSI broth microdilution method
# Escherichia coli [34] = test: microbe, parasite or virus in culture; remark: listed apart in the source
# Description: Antimicrobial activity against Escherichia coli expressing beta-lactamase CMY-2 by CLSI broth microdilution method
# Pseudomonas aeruginosa [35] = test: Antimicrobial activity against Pseudomonas aeruginosa expressing delta-mexB/mexXY/delta-ampDh2/ delta-ampD by CLSI broth microdilution method; type: functional
# Escherichia coli [36] = test: microbe, parasite or virus in culture; remark: listed apart in the source
# Description: Antimicrobial activity against Escherichia coli expressing beta-lactamase TEM-10 by CLSI broth microdilution method
# Escherichia coli [37] = test: microbe, parasite or virus in culture; remark: listed apart in the source
# Description: Antimicrobial activity against Escherichia coli expressing beta-lactamase DHA by CLSI broth microdilution method
# Enterobacteriaceae = test: Antimicrobial activity against ESBL, KPC and MBL producing Enterobacteriaceae by CLSI broth microdilution method; type: functional
# Escherichia coli [38] = test: microbe, parasite or virus in culture; remark: listed apart in the source
# Description: Antimicrobial activity against Escherichia coli expressing beta-lactamase SHV-12 by CLSI broth microdilution method
# Escherichia coli [39] = test: microbe, parasite or virus in culture; remark: listed apart in the source
# Description: Antimicrobial activity against Escherichia coli expressing beta-lactamase MIR-1 by CLSI broth microdilution method
# Escherichia coli [40] = test: microbe, parasite or virus in culture; remark: listed apart in the source
# Description: Antimicrobial activity against Escherichia coli expressing beta-lactamase SME-1 by CLSI broth microdilution method
# Escherichia coli [41] = test: microbe, parasite or virus in culture; remark: listed apart in the source
# Description: Antimicrobial activity against Escherichia coli expressing beta-lactamase Oxa-181 by CLSI broth microdilution method
# Escherichia coli [42] = test: microbe, parasite or virus in culture; remark: listed apart in the source
# Description: Antimicrobial activity against Escherichia coli expressing beta-lactamase PER-1 by CLSI broth microdilution method
# Escherichia coli [43] = test: microbe, parasite or virus in culture; remark: listed apart in the source
# Description: Antimicrobial activity against Escherichia coli expressing beta-lactamase Oxa-146 by CLSI broth microdilution method
# Escherichia coli [44] = test: microbe, parasite or virus in culture; remark: listed apart in the source
# Description: Antimicrobial activity against wild type Escherichia coli by CLSI broth microdilution method
compound,measurement,setting,value
NC[C@@H]1CN(C[C@@H]2[C@H](NC(=O)/C(=N\OC3(C(=O)O)CC3)c3csc(N)n3)C(=O)N2S(=O)(=O)O)C(=O)O1 (stereo in doubt),MIC,Pseudomonas aeruginosa [1],32 µg/mL
same,MIC,Escherichia coli [2],> 32 µg/mL
same,MIC,Pseudomonas aeruginosa [3],16 µg/mL
same,MIC,Escherichia coli [4],1 µg/mL
same,MIC,Escherichia coli [5],≤ 0.06 µg/mL
same,MIC,Escherichia coli [6],0.06 µg/mL
same,MIC,Escherichia coli [7],0.06 µg/mL
same,MIC,Escherichia coli [8],0.125 µg/mL
same,MIC,Escherichia coli [9],0.125 µg/mL
same,MIC,Pseudomonas aeruginosa [10],> 64 µg/mL
same,MIC,Escherichia coli [11],32 µg/mL
same,MIC,Escherichia coli [12],0.125 µg/mL
same,MIC,Escherichia coli [13],0.125 µg/mL
same,MIC,Escherichia coli [14],0.125 µg/mL
same,MIC,Escherichia coli [15],0.125 µg/mL
same,MIC,Escherichia coli [16],0.03 µg/mL
same,MIC,Escherichia coli [17],≤ 0.06 µg/mL
same,MIC,Escherichia coli [18],≤ 0.06 µg/mL
same,MIC,Escherichia coli [19],1 µg/mL
same,MIC,Escherichia coli [20],0.125 µg/mL
same,MIC,Escherichia coli [21],0.06 µg/mL
same,MIC,Escherichia coli [22],0.25 µg/mL
same,MIC,Escherichia coli [23],0.5 µg/mL
same,MIC,Escherichia coli [24],≤ 0.06 µg/mL
same,MIC,Escherichia coli [25],0.25 µg/mL
same,MIC,Escherichia coli [26],0.125 µg/mL
same,MIC,Escherichia coli [27],0.125 µg/mL
same,MIC,Escherichia coli [28],0.125 µg/mL
same,MIC,Escherichia coli [29],0.06 µg/mL
same,half-life,[30],6.54 days
same,MIC,Escherichia coli [31],32 µg/mL
same,MIC,Escherichia coli [32],0.06 µg/mL
same,MIC,Escherichia coli [33],32 µg/mL
same,MIC,Escherichia coli [34],0.125 µg/mL
same,MIC,Pseudomonas aeruginosa [35],> 32 µg/mL
same,MIC,Escherichia coli [36],1 µg/mL
same,MIC,Escherichia coli [37],0.25 µg/mL
same,MIC90,Enterobacteriaceae,1 µg/mL
same,MIC,Escherichia coli [38],0.25 µg/mL
same,MIC,Escherichia coli [39],≤ 0.06 µg/mL
same,MIC,Escherichia coli [40],0.06 µg/mL
same,MIC,Escherichia coli [41],0.25 µg/mL
same,MIC,Escherichia coli [42],> 64 µg/mL
same,MIC,Escherichia coli [43],2 µg/mL
same,MIC,Escherichia coli [44],0.125 µg/mL
Nc1nc(/C(=N/OC2(C(=O)O)CC2)C(=O)N[C@@H]2C(=O)N(S(=O)(=O)O)[C@@H]2CN2CCOC2=O)cs1 (stereo in doubt) [ANCREMONAM],MIC,Pseudomonas aeruginosa [1],32 µg/mL
same,MIC,Escherichia coli [2],8 µg/mL
same,MIC,Pseudomonas aeruginosa [3],1 µg/mL
same,MIC,Escherichia coli [4],0.5 µg/mL
same,MIC,Escherichia coli [5],0.125 µg/mL
same,MIC,Escherichia coli [6],0.125 µg/mL
same,MIC,Escherichia coli [7],0.125 µg/mL
same,MIC,Escherichia coli [8],0.25 µg/mL
same,MIC,Escherichia coli [9],0.25 µg/mL
same,MIC,Pseudomonas aeruginosa [10],≥ 64 µg/mL
same,MIC,Escherichia coli [11],32 µg/mL
same,MIC,Escherichia coli [12],0.125 µg/mL
same,MIC,Escherichia coli [13],0.25 µg/mL
same,MIC,Escherichia coli [14],0.25 µg/mL
same,MIC,Escherichia coli [15],0.125 µg/mL
same,MIC,Escherichia coli [16],0.125 µg/mL
same,MIC,Escherichia coli [17],0.25 µg/mL
same,MIC,Escherichia coli [18],0.125 µg/mL
same,MIC,Escherichia coli [19],0.125 µg/mL
same,MIC,Escherichia coli [20],0.25 µg/mL
same,MIC,Escherichia coli [21],0.125 µg/mL
same,MIC,Escherichia coli [22],1 µg/mL
same,MIC,Escherichia coli [23],0.5 µg/mL
same,MIC,Escherichia coli [24],0.125 µg/mL
same,MIC,Escherichia coli [25],0.125 µg/mL
same,MIC,Escherichia coli [26],0.125 µg/mL
same,MIC,Escherichia coli [27],0.125 µg/mL
same,MIC,Escherichia coli [28],0.125 µg/mL
same,MIC,Escherichia coli [29],0.125 µg/mL
same,half-life,[30],16.7 days
same,MIC,Escherichia coli [31],8 µg/mL
same,MIC,Escherichia coli [32],0.125 µg/mL
same,MIC,Escherichia coli [33],16 µg/mL
same,MIC,Escherichia coli [34],0.25 µg/mL
same,MIC,Pseudomonas aeruginosa [35],64 µg/mL
same,MIC,Escherichia coli [36],1 µg/mL
same,MIC,Escherichia coli [37],0.5 µg/mL
same,MIC90,Enterobacteriaceae,2 µg/mL
same,MIC,Escherichia coli [38],0.5 µg/mL
same,MIC,Escherichia coli [39],0.125 µg/mL
same,MIC,Escherichia coli [40],0.125 µg/mL
same,MIC,Escherichia coli [41],0.125 µg/mL
same,MIC,Escherichia coli [42],64 µg/mL
same,MIC,Escherichia coli [43],2 µg/mL
same,MIC,Escherichia coli [44],0.125 µg/mL

# — ChEMBL document CHEMBL4184210, “Optimization of novel monobactams with activity against carbapenem-resistant Enterobacteriaceae - Identification of LYS228” (Bioorg Med Chem Lett, 2018)
